The supplement of paper PMC11061612

Columns and labels:
Assay in all cases: combination Emax (second highest fraction inhibited in the dose matrix, 72 h); higher = more inhibition; extreme values may be limits of the assay
[1] = tested on: A4-Fuk (B-Lymphoblastic Leukemia)
Summary of the method: (§1)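 After 24 hours at 37°C and 5% CO2 in 1536-well plates, cells in DMEM/F12 or RPMI plus 10% FBS received two-drug dose matrices for 72 hours. Viability came from CellTiter-Glo 2.0 luminescence and was scaled as inhibition, anchored at 0 by vehicle wells and at 1 by blank wells. Combination Emax is taken as the second-highest inhibition in the matrix, and Bliss excess as the observed combination effect less EA + EB − EA·EB, with EA and EB the single-agent effects.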

[2] = tested on: COLO-679 (Melanoma)
Summary of the method: as §1

[3] = tested on: KMRC-1 (Kidney Carcinoma)
Summary of the method: as §1

[4] = tested on: MDA-MB-453 (Breast Carcinoma)
Summary of the method: as §1

[5] = tested on: ML-2 (Acute Myeloid Leukemia)
Summary of the method: as §1

[6] = tested on: MOLT-4 (T-Lymphoblastic Leukemia)
Summary of the method: as §1

[7] = tested on: NCI-H1355 (Lung Adenocarcinoma)
Summary of the method: as §1

[8] = tested on: NCI-H1993 (Lung Adenocarcinoma)
Summary of the method: as §1

[9] = tested on: SK-N-AS (Neuroblastoma)
Summary of the method: as §1

[10] = tested on: SKN (Other Solid Carcinomas)
Summary of the method: as §1

[11] = tested on: SNU-387 (Hepatocellular Carcinoma)
Summary of the method: as §1

[12] = tested on: SW872 (Other Solid Carcinomas)
Summary of the method: as §1

[13] = tested on: SW982 (Other Solid Carcinomas)
Summary of the method: as §1

Row | SMILES | combination Emax [1] | combination Emax [2] | combination Emax [3] | combination Emax [4] | combination Emax [5] | combination Emax [6] | combination Emax [7] | combination Emax [8] | combination Emax [9] | combination Emax [10] | combination Emax [11] | combination Emax [12] | combination Emax [13]
1 | O=C(c1cc(Cc2n[nH]c(=O)c3ccccc23)ccc1F)N1CCN(C(=O)C2CC2)CC1 [Olaparib] + COc1nnc2ccc(N3CCC(c4ccc(OCCN5CCN(C)C(=O)[C@H]5C)cc4)CC3)nn12 [AZD5153] (first compound max 10 µM, 7x7, partner max 1 µM) | 0.876 | 0.321 | 0.277 | 0.664 | 0.917 | 0.591 | 0.335 | 0.459 | 0.326 | 0.553 | 0.419 | 0.568 | 0.787
2 | Cc1nc(-c2cn3c(n2)-c2ccc(-c4cnn(C(C)(C)C(N)=O)c4)cc2OCC3)n(C(C)C)n1 [Taselisib] + O=C(Nc1ccc2[nH]nc(-c3ccncc3)c2c1)[C@@H]1CCN(CC(=O)N2CCN(c3ccc(-c4ncccn4)cc3)CC2)C1 [SCH772984] (first compound max 10 µM, 7x7, partner max 5 µM) | 1 | 0.851 | 0.543 | 0.721 | 1 | 0.837 | 0.656 | 0.886 | 0.494 | 0.735 | 0.996 | 0.636 | 0.908
3 | CN(CCO)CC[C@H](CSc1ccccc1)Nc1ccc(S(=O)(=O)NC(=O)c2ccc(N3CCC([C@@H](O)c4ccccc4-c4ccc(Cl)cc4)CC3)cc2)cc1S(=O)(=O)C(F)(F)F [AZD4320] + CS(=O)(=O)CCNCc1ccc(-c2ccc3ncnc(Nc4ccc(OCc5cccc(F)c5)c(Cl)c4)c3c2)o1 [Lapatinib] (first compound max 1 µM, 7x7, partner max 10 µM) | 0.931 | 0.308 | 0.944 | 0.548 | 1 | 1 | 0.264 | 0.943 | 0.197 | 0.759 | 0.939 | 0.198 | 0.968
4 | C[C@@H]1COCCN1c1cc(C2([S@](C)(=N)=O)CC2)nc(-c2ccnc3[nH]ccc23)n1 [AZD6738] + Nc1ccn([C@@H]2O[C@H](CO)[C@@H](O)C2(F)F)c(=O)n1 [Gemcitabine] (first compound max 10 µM, 7x7, partner max 0.3 µM) | 0.962 | 0.82 | 0.801 | 0.678 | 1 | 1 | 0.722 | 0.939 | 0.801 | 0.71 | 0.718 | 0.907 | 0.949
5 | C[C@@H](Nc1cc(F)cc(F)c1)c1cc(C(=O)N(C)C)cc2c(=O)cc(N3CCOCC3)oc12 [AZD8186] + CC(=O)c1c(C)c2cnc(Nc3ccc(N4CCNCC4)cn3)nc2n(C2CCCC2)c1=O [Palbociclib] (first compound max 10 µM, 7x7, partner max 10 µM) | 0.706 | 0.269 | 0.566 | 0.578 | 0.686 | 0.661 | 0.425 | 0.578 | 0.281 | 0.665 | 0.614 | 0.359 | 0.639
6 | C[C@@H](Oc1cc(-c2cnn(C3CCNCC3)c2)cnc1N)c1c(Cl)ccc(F)c1Cl [Crizotinib] + Cn1cnc2c(F)c(Nc3ccc(Br)cc3Cl)c(C(=O)NOCCO)cc21 [Selumetinib] (first compound max 10 µM, 7x7, partner max 10 µM) | 0.942 | 0.798 | 0.323 | 0.15 | 1 | 0.815 | 0.388 | 0.871 | 0.585 | 0.368 | 0.89 | 0.338 | 0.973
7 | C[C@@H]1COCCN1c1cc(C2([S@](C)(=N)=O)CC2)nc(-c2ccnc3[nH]ccc23)n1 [AZD6738] + C1CC(C1)(C(=O)[O-])C(=O)[O-].N.N.[Pt+2] [Carboplatin] (first compound max 10 µM, 7x7, partner max 10 µM) | 0.823 | 0.625 | 0.521 | 0.66 | 0.916 | 0.984 | 0.581 | 0.547 | 0.69 | 0.427 | 0.289 | 0.456 | 0.665
8 | O=C(c1cc(Cc2n[nH]c(=O)c3ccccc23)ccc1F)N1CCN(C(=O)C2CC2)CC1 [Olaparib] + Cc1c2c(nn1C)CSCc1cc(n(C)n1)CSc1cc(c3ccccc3c1)OCCCc1c(C(=O)O)n(C)c3c-2c(Cl)ccc13 [AZD5991] (first compound max 10 µM, 7x7, partner max 1 µM) | 1 | 0.119 | 0.0973 | 0.341 | 1 | 0.878 | 0.146 | 0.124 | 0.258 | 0.126 | 0.427 | 0.157 | 0.491
9 | C=CCn1c(=O)c2cnc(Nc3ccc(N4CCN(C)CC4)cc3)nc2n1-c1cccc(C(C)(C)O)n1 [AZD1775] + CCc1c2c(nc3ccc(O)cc13)-c1cc3c(c(=O)n1C2)COC(=O)[C@]3(O)CC [SN-38] (first compound max 1 µM, partner max 0.3 µM) | 1 | 0.632 | 0.534 | 0.696 | 1 | 1 | 0.659 | 0.739 | 0.844 | 0.756 | 0.497 | 0.933 | 0.866
10 | O=C(c1cc(Cc2n[nH]c(=O)c3ccccc23)ccc1F)N1CCN(C(=O)C2CC2)CC1 [Olaparib] + CC1(C)CCC(CN2CCN(c3ccc(C(=O)NS(=O)(=O)c4ccc(NCC5CCOCC5)c([N+](=O)[O-])c4)c(Oc4cnc5[nH]ccc5c4)c3)CC2)=C(c2ccc(Cl)cc2)C1 [Venetoclax] (first compound max 10 µM, 7x7, partner max 1 µM) | 0.301 | 0.0175 | 0.182 | 0.104 | 0.961 | 0.7 | 0.172 | 0.0726 | 0.106 | 0.104 | 0.256 | 0.141 | 0.432
11 | CS(=O)(=O)CCNCc1ccc(-c2ccc3ncnc(Nc4ccc(OCc5cccc(F)c5)c(Cl)c4)c3c2)o1 [Lapatinib] + Cn1cnc2c(F)c(Nc3ccc(Br)cc3Cl)c(C(=O)NOCCO)cc21 [Selumetinib] (first compound max 10 µM, 7x7, partner max 10 µM) | 0.979 | 0.749 | 0.696 | 0.389 | 0.715 | 0.501 | 0.472 | 0.73 | 0.441 | 0.341 | 0.62 | 0.25 | 0.66
12 | C[C@@H](Oc1cc(-c2cnn(C3CCNCC3)c2)cnc1N)c1c(Cl)ccc(F)c1Cl [Crizotinib] + CC1=C(C(=CC=C1)Cl)NC(=O)C2=CN=C(S2)NC3=CC(=NC(=N3)C)N4CCN(CC4)CCO [Dasatinib] (first compound max 10 µM, 7x7, partner max 2 µM) | 0.922 | 0.297 | 0.815 | 0.214 | 0.969 | 0.826 | 0.289 | 0.811 | 0.491 | 0.866 | 0.743 | 0.615 | 1
13 | Cc1c2c(nn1C)CSCc1cc(n(C)n1)CSc1cc(c3ccccc3c1)OCCCc1c(C(=O)O)n(C)c3c-2c(Cl)ccc13 [AZD5991] + CS(=O)(=O)CCNCc1ccc(-c2ccc3ncnc(Nc4ccc(OCc5cccc(F)c5)c(Cl)c4)c3c2)o1 [Lapatinib] (first compound max 1 µM, 7x7, partner max 10 µM) | 1 | 0.188 | 0.54 | 0.527 | 1 | 0.604 | 0.326 | 0.433 | 0.395 | 0.223 | 0.459 | 0.32 | 0.621
14 | Cc1c2c(nn1C)CSCc1cc(n(C)n1)CSc1cc(c3ccccc3c1)OCCCc1c(C(=O)O)n(C)c3c-2c(Cl)ccc13 [AZD5991] + Nc1ccn([C@@H]2O[C@H](CO)[C@@H](O)C2(F)F)c(=O)n1 [Gemcitabine] (first compound max 1 µM, 7x7, partner max 0.3 µM) | 1 | 0.782 | 0.737 | 0.731 | 1 | 0.992 | 0.455 | 0.902 | 0.717 | 0.582 | 0.565 | 0.811 | 0.844
15 | O=C(c1cc(Cc2n[nH]c(=O)c3ccccc23)ccc1F)N1CCN(C(=O)C2CC2)CC1 [Olaparib] + CN(CC[C@H](CSC1=CC=CC=C1)NC2=C(C=C(C=C2)S(=O)(=O)NC(=O)C3=CC=C(C=C3)N4CCC(CC4)[C@H](C5=CC=CC=C5C6=CC=C(C=C6)Cl)O)S(=O)(=O)C(F)(F)F)CCO [AZD4320] (first compound max 10 µM, 7x7, partner max 1 µM) | 0.0633 | 0.0175 | 0.219 | 0.224 | 0.979 | 0.977 | 0.198 | 0.595 | 0.112 | 0.174 | 0.304 | 0.133 | 0.709
